IC50 data for 22 compounds are collected here from patent US20220144854A1, “MACROCYCLIC COMPOUNDS” (ZENO MANAGEMENT, INC., priority 2019, published 2022).

For this test, the system named is NCI-H929 (ATCC CRL-9068) cells. Put plainly: NCI-H929 cell proliferation assay (CellTiter-Glo). It is filed as cell-based. As to conditions: 72 h of compound treatment. The protocol:
Cell proliferation was measured using the CellTiter-Glo® Luminescent Cell Viability Assay. The assay involved the addition of a single reagent (CellTiter-Glo® Reagent) directly to cells cultured in serum-supplemented medium.
Each compound evaluated was prepared as a DMSO stock solution (10 mM). Compounds were tested in duplicate on each plate, with a 10-point serial dilution curve (1:3 dilution). Compound treatment ([…]) was added from the compound dilution plate to the cell plate. The highest compound concentration was 10 μM (final), with a 0.1% final DMSO concentration. Plates were then incubated at 37° C., 5% CO2. After 72 h of compound treatment, cell plates were equilibrated at rt for approximately 30 mins. An equi-volume amount of CellTiter-Glo® Reagent (40 μL) was added to each well. Plates were mixed for 2 mins on an orbital shaker to induce cell lysis and then incubated at rt for 10 mins to stabilize the luminescent signal. Luminescence was recorded using an Envision plate reader according to CellTiter-Glo protocol. IC50 of each compound was calculated using GraphPad Prism by nonlinear regression analysis.

One may read the IC50 as the concentration at which inhibition is half-maximal. Read a low IC50 as inhibition by little substance. “(Z)-1^6-Fluoro-6^1-isobutyl-1^1,2^1,2^3-trimethyl-1^1H,2^1H,6^1H-10-oxa-4,8-dithia-1(7,3)-indola-2(4,5),6(3,5)-dipyrazola-9(3,1)-naphthalenacyclotridecaphane-1^2-carboxylic acid [Example 18B]” had an IC50 of 100 to 1000 nM. With `Cn1nc2cc1CSc1cc(c3ccccc3c1)OCCCc1c(C(=O)O)n(C)c3c(c(Cl)ccc13)-c1c(nn3c1CNCC3)CSC2` [Example 23B, (Z)-1^6-Chloro-1^1,6^1-dimethyl-2^4,2^5,2^6,2^7-tetrahydro-1^1H,6^1H-10-oxa-4,8-dithia-2(3,2)-pyrazolo[1,5-a]pyrazina-1(7,3)-indola-6(3,5)-pyrazola-9(3,1)-naphthalenacyclotridecaphane-1^2-carboxylic acid], the IC50 (Homo sapiens, NCI-H929, 72 h) was in the range of 100 to 1000 nM.

The compound `Cn1nc2cc1CCc1cc(c3ccccc3c1)OCCCc1c(C(=O)O)n(C)c3c(c(Cl)ccc13)-c1c(nn3c1CCC3)CNC2` [Example 26B, (Z)-1^6-chloro-1^1,6^1-dimethyl-2^5,2^6-dihydro-1^1H,2^4H,6^1H-10-oxa-4-aza-1(7,3)-indola-2(3,2)-pyrrolo[1,2-b]pyrazola-6(3,5)-pyrazola-9(3,1)-naphthalenacyclotridecaphane-1^2-carboxylic acid] gave an IC50 above 1000 nM.

Consider `Cc1c2c(nn1C)CSCc1cc([nH]n1)CSc1cc(c3ccccc3c1)OCCCc1c(C(=O)O)n(C)c3c-2c(Cl)ccc13` [Example 11A, (Z)-1^6-Chloro-1^1,2^1,2^5-trimethyl-1^1H,2^1H,6^1H-10-oxa-4,8-dithia-1(7,3)-indola-2(4,3),6(3,5)-dipyrazola-9(3,1)-naphthalenacyclotridecaphane-1^2-carboxylic acid], for which the IC50 was above 1000 nM. Under “Homo sapiens, NCI-H929, 72 h”, `CO[C@H]1/C=C/C[C@H](C)[C@@H](C)S(=O)(=O)NC(=O)c2ccc3c(c2)N(C[C@@H]2CC[C@H]21)C[C@@]1(CCCc2cc(Cl)ccc21)CO3` [AMG176, reference compound] yielded an IC50 of 100 to 1000 nM.

For “(Z)-2^5-(tert-Butoxycarbonyl)-1^6-chloro-1^1,6^1-dimethyl-2^4,2^5,2^6,2^7-tetrahydro-1^1H,6^1H-10-oxa-4,8-dithia-2(3,2)-pyrazolo[1,5-a]pyrazina-1(7,3)-indola-6(3,5)-pyrazola-9(3,1)-naphthalenacyclotridecaphane-1^2-carboxylic acid [Example 22B]”, the IC50 was above 1000 nM. For `COc1ccc(Cn2nc3c(c2C)-c2c(Cl)ccc4c(c(C(=O)O)n(C)c24)CCCOc2cc(cc4ccccc24)SCc2cc(nn2C(C)C)CSC3)cc1` (single isomer, unassigned) [Example 8B, (Z)-1^6-Chloro-6^1-isopropyl-2^1-(4-methoxybenzyl)-1^1,2^5-dimethyl-1^1H,2^1H,6^1H-10-oxa-4,8-dithia-1(7,3)-indola-2(4,3),6(3,5)-dipyrazola-9(3,1)-naphthalenacyclotridecaphane-1^2-carboxylic acid], the IC50 was 100 to 1000 nM. The compound `CC(=O)N1CCn2nc3c(c2C1)-c1c(Cl)ccc2c(c(C(=O)O)n(C)c12)CCCOc1cc(cc2ccccc12)SCc1cc(nn1C)CSC3` [Example 24A, (Z)-2^5-Acetyl-1^6-chloro-1^1,6^1-dimethyl-2^4,2^5,2^6,2^7-tetrahydro-1^1H,6^1H-10-oxa-4,8-dithia-2(3,2)-pyrazolo[1,5-a]pyrazina-1(7,3)-indola-6(3,5)-pyrazola-9(3,1)-naphthalenacyclotridecaphane-1^2-carboxylic acid] returned an IC50 (Homo sapiens, NCI-H929, 72 h) of 100 to 1000 nM. Still for that read-out and setting: next, `Cc1[nH]nc2c1-c1c(Cl)ccc3c(c(C(=O)O)n(C)c13)CCCOc1cc(cc3ccccc13)SCc1cc(nn1C(C)C)CSC2` [Example 9B, (Z)-1^6-Chloro-6^1-isopropyl-1^1,2^5-dimethyl-1^1H,2^1H,6^1H-10-oxa-4,8-dithia-1(7,3)-indola-2(4,3),6(3,5)-dipyrazola-9(3,1)-naphthalenacyclotridecaphane-1^2-carboxylic acid]: above 1000 nM. With `COc1ccc(Cn2nc3c(c2C)-c2c(Cl)ccc4c(c(C(=O)O)n(C)c24)CCCOc2cc(cc4ccccc24)SCc2cc(nn2C(C)C)CSC3)cc1` (single isomer, unassigned) [Example 8A, (Z)-1^6-Chloro-6^1-isopropyl-2^1-(4-methoxybenzyl)-1^1,2^5-dimethyl-1^1H,2^1H,6^1H-10-oxa-4,8-dithia-1(7,3)-indola-2(4,3),6(3,5)-dipyrazola-9(3,1)-naphthalenacyclotridecaphane-1^2-carboxylic acid], the IC50 was above 1000 nM.

In the case of `Cn1nc2cc1CCc1cc(c3ccccc3c1)OCCCc1c(C(=O)O)n(C)c3c(c(Cl)ccc13)-c1c(nn3c1CCCC3)CNC2` (single isomer, unassigned) [Example 27B, (Z)-1^6-Chloro-1^1,6^1-dimethyl-2^4,2^5,2^6,2^7-tetrahydro-1^1H,6^1H-10-oxa-4-aza-2(3,2)-pyrazolo[1,5-a]pyridina-1(7,3)-indola-6(3,5)-pyrazola-9(3,1)-naphthalenacyclotridecaphane-1^2-carboxylic acid], the IC50 was above 1000 nM. Still for that read-out and setting: with `Cc1c2c(nn1C)CSCc1cc(n(C)n1)CSc1cc(c3ccccc3c1)OCCCc1c(C(=O)O)n(C)c3c-2c(F)ccc13` [Example 14B, (Z)-1^6-Fluoro-1^1,2^1,2^5,6^1-tetramethyl-1^1H,2^1H,6^1H-10-oxa-4,8-dithia-1(7,3)-indola-2(4,3),6(3,5)-dipyrazola-9(3,1)-naphthalenacyclotridecaphane-1^2-carboxylic acid] the figure was above 1000 nM; with “(Z)-6^1-Ethyl-1^6-fluoro-1^1,2^1,2^3-trimethyl-1^1H,2^1H,6^1H-10-oxa-4,8-dithia-1(7,3)-indola-2(4,5),6(3,5)-dipyrazola-9(3,1)-naphthalenacyclotridecaphane-1^2-carboxylic acid [Example 15B]”, above 1000 nM; with `Cc1nn(C)c2c1-c1c(Cl)ccc3c(c(C(=O)O)n(C)c13)CCCOc1cc(cc3ccccc13)SCc1cc(nn1C)CSC2` (single isomer, unassigned) [Example 19B, (Z)-1^6-Chloro-1^1,2^1,2^3,6^1-tetramethyl-1^1H,2^1H,6^1H-10-oxa-4,8-dithia-1(7,3)-indola-2(4,5),6(3,5)-dipyrazola-9(3,1)-naphthalenacyclotridecaphane-1^2-carboxylic acid], below 100 nM. The same measure, in the same setting: next, “(Z)-2^5-(tert-Butoxycarbonyl)-1^6-chloro-1^1,6^1-dimethyl-2^4,2^5,2^6,2^7-tetrahydro-1^1H,6^1H-10-oxa-4,8-dithia-2(3,2)-pyrazolo[1,5-a]pyrazina-1(7,3)-indola-6(3,5)-pyrazola-9(3,1)-naphthalenacyclotridecaphane-1^2-carboxylic acid [Example 22A]”: 100 to 1000 nM.

Turning to `Cc1nn(C)c2c1-c1c(Cl)ccc3c(c(C(=O)O)n(C)c13)CCCOc1cc(cc3ccccc13)SCc1cc(nn1C)CSC2` (single isomer, unassigned) [Example 19A, (Z)-1^6-Chloro-1^1,2^1,2^3,6^1-tetramethyl-1^1H,2^1H,6^1H-10-oxa-4,8-dithia-1(7,3)-indola-2(4,5),6(3,5)-dipyrazola-9(3,1)-naphthalenacyclotridecaphane-1^2-carboxylic acid], the IC50 was above 1000 nM. In turn, `CN1CCn2nc3c(c2C1)-c1c(Cl)ccc2c(c(C(=O)O)n(C)c12)CCCOc1cc(cc2ccccc12)SCc1cc(nn1C)CSC3` [Example 25A, (Z)-1^6-chloro-1^1,2^5,6^1-trimethyl-2^4,2^5,2^6,2^7-tetrahydro-1^1H,6^1H-10-oxa-4,8-dithia-2(3,2)-pyrazolo[1,5-a]pyrazina-1(7,3)-indola-6(3,5)-pyrazola-9(3,1)-naphthalenacyclotridecaphane-1^2-carboxylic acid] yielded a half-maximal inhibitory concentration (IC50) (Homo sapiens, NCI-H929, 72 h) of 100 to 1000 nM. In the case of `Cc1nn(C)c2c1-c1c(F)ccc3c(c(C(=O)O)n(C)c13)CCCOc1cc(cc3ccccc13)SCc1cc(nn1CC(C)C)CSC2` (single isomer, unassigned) [Example 17B, (Z)-1^6-Fluoro-6^1-isobutyl-1^1,2^1,2^3-trimethyl-1^1H,2^1H,6^1H-10-oxa-4,8-dithia-1(7,3)-indola-2(4,5),6(3,5)-dipyrazola-9(3,1)-naphthalenacyclotridecaphane-1^2-carboxylic acid], the IC50 is 100 to 1000 nM. The compound `Cc1c2c(nn1C)CSCc1cc(n(C)n1)CSc1cc(c3ccccc3c1)OCCCc1c(C(=O)O)n(C)c3c-2c(Cl)ccc13` [AZD5991, reference compound] displayed an IC50 (Homo sapiens, NCI-H929, 72 h) below 100 nM. Same read-out and setting: with `Cc1nn(C23CC(C2)C3)c2c1-c1c(Cl)ccc3c(c(C(=O)O)n(C)c13)CCCOc1cc(cc3ccccc13)SCc1cc(n[nH]1)CSC2` [Example 21A, (Z)-2^1-(Bicyclo[1.1.1]pentan-1-yl)-1^6-chloro-1^1,2^3-dimethyl-1^1H,2^1H,6^1H-10-oxa-4,8-dithia-1(7,3)-indola-2(4,5),6(3,5)-dipyrazola-9(3,1)-naphthalenacyclotridecaphane-1^2-carboxylic acid] the figure was above 1000 nM. Regarding `Cn1nc2cc1CCc1cc(c3ccccc3c1)OCCCc1c(C(=O)O)n(C)c3c(c(Cl)ccc13)-c1c(nn3c1CCCC3)CNC2` (single isomer, unassigned) [Example 27A, (Z)-1^6-Chloro-1^1,6^1-dimethyl-2^4,2^5,2^6,2^7-tetrahydro-1^1H,6^1H-10-oxa-4-aza-2(3,2)-pyrazolo[1,5-a]pyridina-1(7,3)-indola-6(3,5)-pyrazola-9(3,1)-naphthalenacyclotridecaphane-1^2-carboxylic acid], the IC50 lay in the range of 100 to 1000 nM. Under “Homo sapiens, NCI-H929, 72 h”, `Cn1nc2cc1CSc1cc(c3ccccc3c1)OCCCc1c(C(=O)O)n(C)c3c(c(Cl)ccc13)-c1c(nn3c1CCC3)CNC2` [Example 26A] showed an IC50 of 100 to 1000 nM.
